Assay results reported in article PMC11410929, “Biochemical and crystallographic studies of L,D-transpeptidase 2 from Mycobacterium tuberculosis with its natural monomer substrate” (Communications Biology, 2024).

These substances were tested on LdtMt2^C354S.
Type: biochemical, Mycobacterium tuberculosis

Substance	Product formation with LdtMt2^C354S
GlcNAc-MurNAc-L-Ala-D-iGluNH2-m-DAPNH2-D-Ala [Compound 1]	no product formation was observed
GlcNAc-Muramitol-L-Ala-D-iGluNH2-m-DAPNH2-D-Ala [Compound 2]	no product formation was observed
lactoyl-L-Ala-D-iGluNH2-m-DAPNH2-D-Ala [Compound 3]	no product formation was observed
